The test system of assay [1] is Sporobolomyces salmonicolor. As to the kind of experiment: Antifungal agar well diffusion assay. The conditions noted are these: 20 μL water solution in 4 mm well.
Procedure: (§1) The well diffusion test was performed using Casitone agar. The inoculum used was prepared using the Candida or Aspergillus strains from a 24-hour culture on Sabouraud dextrose agar, a suspension was made in a sterile saline solution (0.85%). The turbidity of the suspension was adjusted with a spectrophotometer at 530 nm to obtain a final concentration to match that of a 0.5 McFarland standard (0.5-2.5×10^3). 20 mL of Bacto-casitone were melted, cooled to 55° C. and then inoculated with 1 mL of the organism suspension. The inoculated agar was poured into the assay plate (9 cm in diameter) and allowed to cool down on a leveled surface.
Assay [2] has as its system Candida albicans H8. Kind of assay: Antifungal agar well diffusion assay. The conditions noted are these: 20 μL water solution in 4 mm well.
Procedure: as §1
Assay [3] deals with Penicillium notatum. Kind of assay: Antifungal agar well diffusion assay. The note with it: 20 μL water solution in 4 mm well.
Procedure: as §1
Assay [4] deals with Aspergillus niger. As to the kind of experiment: Antifungal agar well diffusion assay. The note with it: 20 μL water solution in 4 mm well.
Procedure: as §1
The subject of assay [5] is Mycobacterium abscessus ATCC 19977. Kind of assay: REMA MIC90 against M. abscessus ATCC 19977. Type of assay: cell-based. The conditions noted are these: Mycobacteroides abscessus. As to the method:
Briefly, serial 2-fold dilutions of drug are prepared in 96-well microtiter plates (Fluoronunc, Thermo Fisher, Waltham, MA, USA) in 100 μL of Middlebrook 7H9 medium (Difco), supplemented with 10% OADC without addition of Tween 80. Then, M. abscessus log-phase cultures were diluted (OD600=0.02) and added in the 96-well microtiter plate. Growth controls containing no compound and sterile controls without inoculum are also included. […] After 1 day of incubation at 37° C., 10 μL of resazurin (0.025% w/v) is added to each well, and bacterial viability is assessed after a further 24 h of incubation using a Fluoroskan™ Microplate Fluorometer (Thermo Fisher Scientific, Waltham, MA, USA; excitation=544 nm, emission=590 nm). […] Results are expressed as the average of at least three independent replicates and presented on the following Table 1.

The mark [6] stands for this setting: ATCC19977, MIC90, REMA, Table 1, read-out: MIC in M. abscessus ATCC 19977.
[7] abbreviates: ATCC19977, read-out: MIC in M. abscessus ATCC 19977.

Consider ten compounds from patent publication US20260191845A1, “PYRIDINE-2-THIOL 1-OXIDE DERIVATIVES AND THEIR USE FOR TREATMENT OF MAMMALIAN INFECTIONS CAUSED BY MYCOBACTERIUM OR FUNGI” (priority 2022, published 2026).

Values after ≈ are worked out from the molar mass of the structure shown. Read-outs that look alike come from different tables or passages of the source.

In the case of `C[C@@H]1[C@H](O)[C@@H](C)/C=C/C=C/C=C/C=C/C=C/C=C/C=C/[C@H](O[C@@H]2O[C@H](C)[C@@H](O)[C@H](N)[C@@H]2O)C[C@@H]2O[C@](O)(C[C@@H](O)C[C@@H](O)[C@H](O)CC[C@@H](O)C[C@@H](O)CC(=O)O[C@H]1C)C[C@H](O)[C@H]2C(=O)O` [Amph. B, reference compound], the “Inhibition Zone of Test Microorganism” value came to 15 mm in assay [1], 22 mm in assay [2], 12 mm in assay [3] and 17 mm in assay [4].

With `CCOC(=O)c1ccc(S)[n+]([O-])c1` [Compound 1, Ethyl 6-mercaptonicotinate 1-oxide], the MIC in assay [5] (setting [6]) is 125 µg/mL (≈ 627 µM). The “Inhibition Zone of Test Microorganism” value stood at 43 mm in assay [1], 56 mm in assay [2], 17 mm in assay [3] and 26 mm in assay [4].

With `COC(=O)c1ccc(S)[n+]([O-])c1` [Compound 3, Methyl 6-mercaptonicotinate 1-oxide], the MIC in assay [5] (setting [6]) turned out to be 250 µg/mL (≈ 1350 µM).

For the compound `COC(=O)c1ccc([S-])[n+]([O-])c1.[Na+]` [Compound 4, Sodium 5-(methoxycarbonyl)pyridine-2-thiolate 1-oxide], in assay [5] (setting [6]), the MIC is 250 µg/mL.

For `[Na+].[O-][n+]1cc(C(F)(F)F)ccc1[S-]` [Compound 5, Sodium 5-(trifluoromethyl)pyridine-2-thiolate 1-oxide], the MIC in assay [5] (setting [7]) amounted to 250 µg/mL. Further, the “Inhibition Zone of Test Microorganism” value in assay [1] was 40 mm; in assay [2], 49 mm; in assay [3], 15 mm; in assay [4] it was 22 mm.

For the compound `NC(=O)c1ccc([S-])[n+]([O-])c1.[K+]` [Compound 6, Potassium 5-(aminocarbonyl)pyridine-2-thiolate 1-oxide], in assay [5] (setting [7]), the MIC was 500 µg/mL.

For the compound `O=C(c1ccc([S-])[n+]([O-])c1)N1CCCCC1.[K+]` [Compound 7, Potassium 5-(piperidin-1-ylcarbonyl)pyridine-2-thiolate 1-oxide], the MIC in assay [5] (setting [7]) amounted to 1000 µg/mL. In addition, the “Inhibition Zone of Test Microorganism” value in assay [1] was determined as 43 mm; in assay [2] it was 52 mm; in assay [3], 15 mm; in assay [4], 23 mm.

For the compound `CN(C)C(=O)c1ccc(S)[n+]([O-])c1` [Compound 8, 6-Mercapto-N,N-dimethylnicotinamide 1-oxide], the MIC in assay [5] (setting [6]) stood at 500 µg/mL (≈ 2520 µM).

As for `CN(C)C(=O)c1ccc([S-])[n+]([O-])c1.[Na+]` [Compound 9, Sodium 5-[(dimethylamino)carbonyl]pyridine-2-thiolate 1-oxide], the MIC in assay [5] (setting [6]) turned out to be 500 µg/mL.

For the compound `CC(C)OC(=O)c1ccc([S-])[n+]([O-])c1.[Na+]` [Compound 10, Sodium 5-(isopropoxycarbonyl)pyridine-2-thiolate 1-oxide], the MIC in assay [5] (setting [6]) was 500 µg/mL.
